This note sets out measurements from patent US10774064B2 (Cadent Therapeutics, Inc., priority 2016, dated 2020).

In the experiment the target is T1, small-conductance Ca2+-activated K+ channels (SK channels, subtype 2) (Homo sapiens, UniProt Q9H2S1).
T1 construct: expressed in transfected cells; host or cells: HEK293
The experiment can be described thus: whole-cell patch-clamp of ionic current through SK2 channels in HEK293 cells (SC100). The class given is cell-based. The note with it: concentration that increases the basal current by 100%; HEK293 cells expressing SK2 channels. The essentials: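 Whole-cell patch-clamp recording of current in HEK293 cells expressing SK2 channels. SC100 is the compound concentration that increases basal current by 100%.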
For `Cc1cc(C)n(-c2cc(NCc3ncco3)cc(NC3CCC(F)(F)CC3)n2)n1` [Compound 259, N2-(4,4-difluorocyclohexyl)-6-(3,5-dimethyl-1H-pyrazol-1-yl)-N4-(oxazol-2-ylmethyl)pyridine-2,4-diamine], the SC100 entry is “+ (+ means >1 uM)”.
Next, `CCc1cc(C)nn1-c1nc(C)cc(NC2CCC(F)(F)CC2)n1` [Compound 260, N-(4,4-difluorocyclohexyl)-2-(5-ethyl-3-methyl-1H-pyrazol-1-yl)-6-methylpyrimidin-4-amine]: “+ (+ means >1 uM)”; `Cc1cc(C)n(-c2cc(OCc3nnc(C)o3)cc(NC3CCC(F)(F)CC3)n2)n1` [Compound 261, N-(4,4-difluorocyclohexyl)-6-(3,5-dimethyl-1H-pyrazol-1-yl)-4-((5-methyl-1,3,4-oxadiazol-2-yl)methoxy)pyridin-2-amine]: “++ (++ means 200 nM-1000 nM)”; `Cc1cc(C)n(-c2nc(NC3CCC(F)(F)CC3)cc(C3=CCCOC3)n2)n1` [Compound 262, N-(4,4-difluorocyclohexyl)-6-(5,6-dihydro-2H-pyran-3-yl)-2-(3,5-dimethyl-1H-pyrazol-1-yl)pyrimidin-4-amine]: “++ (++ means 200 nM-1000 nM)”.
For the molecule `Cc1cc(C)n(-c2cc(OCc3ccc(F)cc3)cc(NC3CCC(F)(F)CC3)n2)n1` [Compound 263, N-(4,4-difluorocyclohexyl)-6-(3,5-dimethyl-1H-pyrazol-1-yl)-4-((4-fluorobenzyl)oxy)pyridin-2-amine], the SC100 entry is recorded as “++ (++ means 200 nM-1000 nM)”.
Next, `COc1ccc(CNc2cc(NC3CCC(F)(F)CC3)nc(-n3nc(C)cc3C)c2)cc1` [Compound 264, N2-(4,4-difluorocyclohexyl)-6-(3,5-dimethyl-1H-pyrazol-1-yl)-N4-(4-methoxybenzyl)pyridine-2,4-diamine]: “++ (++ means 200 nM-1000 nM)”; `Cc1cc(NC2CCC(F)(F)CC2)nc(-n2ccc(C(C)(C)O)n2)c1` [Compound 265, 2-(1-(6-((4,4-difluorocyclohexyl)amino)-4-methylpyridin-2-yl)-1H-pyrazol-3-yl)propan-2-ol]: “+ (+ means >1 uM)”.
Next, `Cc1cc(C)n(-c2cc3c(ncn3C)c(NC3CCC(F)(F)CC3)n2)n1` [Compound 266, N-(4,4-difluorocyclohexyl)-6-(3,5-dimethyl-1H-pyrazol-1-yl)-1-methyl-1H-imidazo[4,5-c]pyridin-4-amine]: “++ (++ means 200 nM-1000 nM)”; `Cc1cc(NC2CCC(F)(F)CC2)nc(-c2nc(C3CC3)cs2)n1` [Compound 267, 2-(4-cyclopropylthiazol-2-yl)-N-(4,4-difluorocyclohexyl)-6-methylpyrimidin-4-amine]: “+ (+ means >1 uM)”; `Cc1cc(C)n(-c2cc(OCc3cnnn3C)cc(NC3CCC(F)(F)CC3)n2)n1` [Compound 268, N-(4,4-difluorocyclohexyl)-6-(3,5-dimethyl-1H-pyrazol-1-yl)-4-((1-methyl-1H-1,2,3-triazol-5-yl)methoxy)pyridin-2-amine]: “++ (++ means 200 nM-1000 nM)”.
Next, `Cc1cc(NC2CCC(F)(F)CC2)nc(-c2nc(C(F)(F)F)cs2)n1` [Compound 269, N-(4,4-difluorocyclohexyl)-6-methyl-2-(4-(trifluoromethyl)thiazol-2-yl)pyrimidin-4-amine]: “+ (+ means >1 uM)”; `Cc1cc(NC2CCC(F)(F)CC2)nc(-c2nc(CO)cs2)n1` [Compound 270, (2-(4-((4,4-difluorocyclohexyl)amino)-6-methylpyrimidin-2-yl)thiazol-4-yl)methanol]: “+ (+ means >1 uM)”.
Take `Cc1cc(C)n(-c2cc(OCc3ncnn3C)cc(NC3CCC(F)(F)CC3)n2)n1` [Compound 271, N-(4,4-difluorocyclohexyl)-6-(3,5-dimethyl-1H-pyrazol-1-yl)-4-((1-methyl-1H-1,2,4-triazol-5-yl)methoxy)pyridin-2-amine]: the SC100 result is “++ (++ means 200 nM-1000 nM)”.
Next, `Cc1cc(C)n(-c2nc(NC3CCC(F)(F)CC3)cc(OCc3ncn(C)n3)n2)n1` [Compound 272]: “+ (+ means >1 uM)”; `Cc1cc(NC2CCC(F)(F)CC2)nc(-c2nc(CF)cs2)n1` [Compound 273, N-(4,4-difluorocyclohexyl)-2-(4-(fluoromethyl)thiazol-2-yl)-6-methylpyrimidin-4-amine]: “++ (++ means 200 nM-1000 nM)”.
Next, `Cc1cc(C)n(-c2nc(NC3CCC(F)(F)CC3)cc(OCc3ncnn3C)n2)n1` [Compound 274, N-(4,4-difluorocyclohexyl)-2-(3,5-dimethyl-1H-pyrazol-1-yl)-6-((1-methyl-1H-1,2,4-triazol-5-yl)methoxy)pyrimidin-4-amine]: “+ (+ means >1 uM)”; `Cc1cc(C)n(-c2cc(OCc3ncn(C)n3)cc(NC3CCC(F)(F)CC3)n2)n1` [Compound 275, N-(4,4-difluorocyclohexyl)-6-(3,5-dimethyl-1h-pyrazol-1-yl)-4-((1-methyl-1H-1,2,4-triazol-3-yl)methoxy)pyridin-2-amine]: “+ (+ means >1 uM)”.
For `Cc1cc(C)n(-c2cc(O)cc(NC3CCC(F)(F)CC3)n2)n1` [Compound 276, 2-((4,4-difluorocyclohexyl)amino)-6-(3,5-dimethyl-1H-pyrazol-1-yl)pyridin-4-ol], the SC100 result was “+ (+ means >1 uM)”.
Next, `Cc1cc(NC2CCC(F)(F)CC2)nc(-c2nc(C(F)F)cs2)n1` [Compound 277, N-(4,4-difluorocyclohexyl)-2-(4-(difluoromethyl)thiazol-2-yl)-6-methylpyrimidin-4-amine]: “++ (++ means 200 nM-1000 nM)”; `Cc1cc(NC2CCC(F)(F)CC2)nc(-c2nc(C(C)C)cs2)n1` [Compound 278, N-(4,4-difluorocyclohexyl)-2-(4-isopropylthiazol-2-yl)-6-methylpyrimidin-4-amine]: “++ (++ means 200 nM-1000 nM)”; `CCc1csc(-c2nc(C)cc(NC3CCC(F)(F)CC3)n2)n1` [Compound 279, N-(4,4-difluorocyclohexyl)-2-(4-ethylthiazol-2-yl)-6-methylpyrimidin-4-amine]: “++ (++ means 200 nM-1000 nM)”.
Consider `FCc1ccn(-c2nc(NC3CCC(F)(F)CC3)cc(N3CCOCC3)n2)n1` [Compound 280, N-(4,4-difluorocyclohexyl)-2-(3-(fluoromethyl)-1H-pyrazol-1-yl)-6-morpholinopyrimidin-4-amine], for which the SC100 result was “+ (+ means >1 uM)”.
For `Cc1cn(-c2nc(NC3CCC(F)(F)CC3)cc(N3CCOCC3)n2)nc1CF` [Compound 281, N-(4,4-difluorocyclohexyl)-2-(3-(fluoromethyl)-4-methyl-1H-pyrazol-1-yl)-6-morpholinopyrimidin-4-amine], the SC100 result is “++ (++ means 200 nM-1000 nM)”.
Next, `Cc1cn(-c2nc(NC3CCC(F)(F)CC3)cc(N3CCOCC3)n2)nc1C(F)F` [Compound 282, N-(4,4-difluorocyclohexyl)-2-(3-(difluoromethyl)-4-methyl-1H-pyrazol-1-yl)-6-morpholinopyrimidin-4-amine]: “+ (+ means >1 uM)”; `FCc1ccn(-c2nc(NC3CCC(F)(F)CC3)cc(N3CCSCC3)n2)n1` [Compound 284, N-(4,4-difluorocyclohexyl)-2-(3-(fluoromethyl)-1H-pyrazol-1-yl)-6-thiomorpholinopyrimidin-4-amine]: “++ (++ means 200 nM-1000 nM)”.
